“And” between values parts separate entries of the source, which are not always exact repeats. Identical values can stand only once.
Legend:
[1] = Hydrolytic half-life of AB23A in human liver microsomes; type: in vitro ADME; conditions: human liver microsomes (HLMs), HLMs 0.1 mg/mL, PBS pH 7.4, read-out: t1/2 (hydrolytic/metabolic half-life)
Experimental: (§1) The hydrolytic half-lives (t1/2) of AB23A in human plasma and different human tissue preparations were carried out according to the procedure of in vitro metabolic stability studies ([Ge et al., 2013]). The incubation mixture (1,000 μL) consisted of PBS (pH 7.4), enzyme sources (HLMs/HIMs/human plasma) and AB23A. 25% diluted human plasma was used, the protein concentrations of other tissue microsomes were 0.1 mg/mL. The 100 μL incubation mixture was moved to another containing ice-cold acetonitrile tube at different time points (0, 5, 15, 30, 45, 60, 90, 120 min). All samples were centrifuged for 30 min at 20,000 g 4°C and took the supernatants for LC-UV analysis.
(§2) The incubation conditions were as follows: the classic incubation system included 100 mM potassium phosphate buffer (PBS, pH 7.4), enzyme sources, and AB23A. In all incubations, PBS and enzyme sources were pre-incubation at 37 °C for 3 min and the reaction was started by adding AB23A (the organic solvent content at most 1%). After reacting 1 h, ice-cold acetonitrile was added to terminate the reaction and precipitate proteins. The samples were centrifuged for 30 min at 20000 × g, 4 °C, and the supernatants were taken for further LC-UV analysis.

[2] = Hydrolytic half-life of AB23A in human intestine microsomes; type: in vitro ADME; conditions: human intestine microsomes (HIMs), HIMs 0.1 mg/mL, PBS pH 7.4, read-out: t1/2 (hydrolytic/metabolic half-life)
Experimental: as §1, §2

[3] = Hydrolytic half-life of AB23A in human plasma; type: in vitro ADME; conditions: human plasma (25% diluted); 25% dilution human plasma, PBS pH 7.4; read-out: t1/2 (hydrolytic/metabolic half-life)
Experimental: as §1, §2

[4] = target: T1, hCES2A (Homo sapiens, UniProt O00748); assay: Kinetic analysis of AB23A hydrolysis in hCES2A; type: in vitro ADME; conditions: 1 h incubation
T1 construct: 10xHis; made in house; host or cells: HEK293-F cells, pTT5 vector, purified from conditioned medium
T1 sequence (O00748 27-559): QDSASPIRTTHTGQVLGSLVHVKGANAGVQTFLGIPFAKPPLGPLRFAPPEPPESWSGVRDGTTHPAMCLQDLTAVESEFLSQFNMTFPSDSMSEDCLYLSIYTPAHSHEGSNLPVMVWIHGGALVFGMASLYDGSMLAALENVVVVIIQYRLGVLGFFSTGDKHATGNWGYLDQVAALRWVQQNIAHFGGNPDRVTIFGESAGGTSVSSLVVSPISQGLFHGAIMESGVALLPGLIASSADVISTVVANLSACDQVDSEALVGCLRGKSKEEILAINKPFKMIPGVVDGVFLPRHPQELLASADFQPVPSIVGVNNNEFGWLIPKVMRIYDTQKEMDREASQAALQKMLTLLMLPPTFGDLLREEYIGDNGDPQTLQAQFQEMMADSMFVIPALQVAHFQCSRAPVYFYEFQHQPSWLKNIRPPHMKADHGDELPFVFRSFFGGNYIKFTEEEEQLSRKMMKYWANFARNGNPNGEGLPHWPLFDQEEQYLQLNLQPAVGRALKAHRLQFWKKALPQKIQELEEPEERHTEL
Experimental: (§3) The enzymatic kinetics of AB23A hydrolysis in different tissue preparations (HLMs, HIMs, human plasma) and human recombinant enzymes (hCES1A, hCES2A, hSA, hBchE) were analyzed. The incubation system (200 μL) consisted of PBS, each tested enzyme, and AB23A (ranging from 0 to 1,000 μM). After incubating for 1 h, the supernatants were then used for LC-UV analysis. The kinetic parameters of AB23A hydrolysis were fitted by the following Michaelis−Menten Eq. 1 ([Zhang et al., 2022]). V=(Vmax×[S])⁄(Km+[S]) (1) Here, K m is the Michaelis constant of AB23A hydrolysis, V max is the maximum velocity of AB23A hydrolysis, V max /K m is used to calculate the intrinsic clearance (CL int ).

[5] = target: T2, hBchE (Homo sapiens, UniProt P06276); assay: Kinetic analysis of AB23A hydrolysis in hBchE; type: in vitro ADME; conditions: 1 h incubation
T2 construct: purchased Sigma-Aldrich Lot SLCG5158
T2 sequence (P06276 29-602): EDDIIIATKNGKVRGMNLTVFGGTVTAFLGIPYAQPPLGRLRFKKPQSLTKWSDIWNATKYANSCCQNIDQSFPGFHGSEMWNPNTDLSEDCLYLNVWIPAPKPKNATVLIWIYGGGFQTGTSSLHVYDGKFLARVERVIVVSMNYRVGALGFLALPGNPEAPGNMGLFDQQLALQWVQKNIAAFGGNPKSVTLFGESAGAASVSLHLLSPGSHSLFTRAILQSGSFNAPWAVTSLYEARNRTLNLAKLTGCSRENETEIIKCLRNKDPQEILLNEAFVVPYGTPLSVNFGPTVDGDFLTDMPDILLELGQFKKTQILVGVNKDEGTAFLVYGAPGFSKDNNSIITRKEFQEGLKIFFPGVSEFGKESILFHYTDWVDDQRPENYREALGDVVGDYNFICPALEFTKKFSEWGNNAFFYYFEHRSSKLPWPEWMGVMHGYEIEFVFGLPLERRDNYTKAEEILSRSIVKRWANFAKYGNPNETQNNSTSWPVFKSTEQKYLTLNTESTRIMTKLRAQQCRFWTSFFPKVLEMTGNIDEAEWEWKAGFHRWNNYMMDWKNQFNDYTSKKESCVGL
Experimental: as §3

[6] = target: T3, hSA (Homo sapiens, UniProt P02768); assay: Kinetic analysis of AB23A hydrolysis in hSA; type: in vitro ADME; conditions: 1 h incubation
T3 construct: purchased Sigma-Aldrich Lot#SLCC9268
T3 sequence (P02768 25-609): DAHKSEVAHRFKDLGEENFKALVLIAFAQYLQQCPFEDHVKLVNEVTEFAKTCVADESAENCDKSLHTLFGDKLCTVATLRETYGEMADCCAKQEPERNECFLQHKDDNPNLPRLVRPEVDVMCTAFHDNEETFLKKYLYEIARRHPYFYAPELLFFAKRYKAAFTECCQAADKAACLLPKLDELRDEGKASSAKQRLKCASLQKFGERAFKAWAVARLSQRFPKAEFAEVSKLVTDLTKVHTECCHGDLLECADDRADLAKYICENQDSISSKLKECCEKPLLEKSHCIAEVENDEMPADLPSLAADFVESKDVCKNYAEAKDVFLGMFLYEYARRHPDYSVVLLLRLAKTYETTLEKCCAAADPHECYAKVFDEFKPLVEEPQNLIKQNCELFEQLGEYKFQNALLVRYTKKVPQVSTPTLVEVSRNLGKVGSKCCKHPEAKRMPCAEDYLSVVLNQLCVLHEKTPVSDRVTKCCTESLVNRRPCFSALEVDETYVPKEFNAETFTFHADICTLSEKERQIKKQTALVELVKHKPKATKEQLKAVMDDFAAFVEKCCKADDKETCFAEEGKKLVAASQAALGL
Experimental: as §3

[7] = Kinetic analysis of AB23A hydrolysis in human plasma; type: in vitro ADME; conditions: 25% dilution
Experimental: as §3

[8] = Stability of AB23A in PBS under physiological conditions; type: physicochemical; conditions: pH 7.4 at 37°C
Experimental: AB23A and its hydrolytic metabolite were separated by ACQUITY UPLC I-Class plus system (Waters Corporation, Milford, United States) coupled with ACQUITY UPLC HSS T3 (100 mm × 2.1 mm, 1.8 μm, Waters, United States), and identified by using Q-Exactive quadru-pole-Orbitrap mass spectrometer. The mobile phases consisted of 0.1% formic acid in water (A) and acetonitrile (B) with the elution gradients were as follows: 0–2 min, 5% B, 2–4 min, 5%–30% B, 4–8 min, 30%–50% B, 8–10 min, 50%–80% B, 10–14 min, 80%–100%, 14–15 min, 100% B, 15–15.1 min, 100%–5% B, 15.1–16 min, 5% B. The flow rate was set at 0.35 mL/min, while the temperature of chromatographic column was maintained at 45°C. The mass range was set from m/z 80 to 1,200. Other MS conditions were as follows: Resolution and AGC target were set at 30000 and 1e^6, the maximum IT was 50 ms and loop count was set 10. (N) CE/stepped (N)CE was set 10, 20, 40 ev. All data were analyzed by PeakView 2.2 software and Thermo Xcalibur.
The incubation conditions were as follows: the classic incubation system included 100 mM potassium phosphate buffer (PBS, pH 7.4), enzyme sources, and AB23A. In all incubations, PBS and enzyme sources were pre-incubation at 37 °C for 3 min and the reaction was started by adding AB23A (the organic solvent content at most 1%). […]

[9] = AB23A hydrolysis in human kidney microsomes; type: in vitro ADME
Experimental: as §1, §2

[10] = target: T3, hSA; assay: Identification of the modification sites of hSA by AB23A (LC-MS/MS of tryptic peptides); conditions: hSA 1 mg/mL, AB23A 50 μM, 37°C; following co-incubation
Experimental: […] The soluble impurities and unbound molecules were washed by ultrapure water (200 μL) ([Nel et al., 2015]). After denaturation for 1 h in 8 M urea solution at 37°C, the mixture was alkylated with dithiothreitol and iodoacetamide in the dark, washed twice with 200 μL ultrapure water, and finally washed with 200 μL 50 mM ammonium bicarbonate. The samples were digested overnight with 2 μL trypsin in 50 mM ammonium bicarbonate solution at an enzyme-to-substrate ratio of 1:50 (w/w). The trypsin digest was collected and washed with 50 μL NaCl solution (500 mM). The peptides were desalted by the MonoSpin C18 (GL Sciences). Subsequently, the eluents were dried by the vacuum pump and resolved in 40 μL 0.1% formic acid for analyses (please refer to the Supplementary Material for more details).

## CC(=O)O[C@H](C[C@@H](C)C1=C2C[C@H](O)C3[C@@]4(C)CCC(=O)C(C)(C)C4CC[C@]3(C)[C@@]2(C)CC1)[C@H]1OC1(C)C (some centres unmarked) [AB23A, Alisol B 23-acetate]
[1]
  half-life: 0.68333 ± 0.000167 h
[2]
  half-life: 1.1333 ± 0.000167 h
[3]
  half-life: 1.916 ± 0.00333 h
[4]
  K m of AB23A hydrolysis: 58.96 ± 2.41 µM
[5]
  K m of AB23A hydrolysis: 35.78 ± 3.40 µM
[6]
  K m of AB23A hydrolysis: 261.20 ± 18.69 µM
[7]
  K m of AB23A hydrolysis: 237.10 ± 15.00 µM
  V max of AB23A hydrolysis: 4.536 ± 0.09 nmol/min/mL and 4.536 ± 0.09 ^b nmol/min/mL
[8]
  Stability in PBS: very stable
[9]
  Formation of AB (hydrolytic metabolite) in HKMs: trace amount of AB
[10]
  Number of lysines in hSA acylated by AB23A: 39

Reference: paper PMC10117764, “The roles of serine hydrolases and serum albumin in alisol B 23-acetate hydrolysis in humans” (Frontiers in Pharmacology, 2023)
